From US6770596B1, “Fused tricyclic compounds, process for their preparation, and herbicidal compositions containing them” (Ishihara Sangyo Kaisha Ltd., priority 2002, dated 2004)

Key:
Format in all cases: in vivo
[1] = tested on: redroot pigweed (Amaranthus retroflexus, AMR); assay: Pre-emerge test, redroot pigweed; details: 250 g ai/ha, 14 days after application, rating scale 0-100 (0 no damage, 100 complete death)
In short: (§1)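 Using a track sprayer with flat fan nozzle, acetone solutions were applied at 8–1000 g ai/ha to sandy loam pots sown one day before. Plant injury was rated visually 0–100 after 14 days.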

[2] = tested on: velvetleaf (Abutilon theophrasti, ABT); assay: Pre-emerge test, velvetleaf; details: 250 g ai/ha, 14 days after application, rating scale 0-100 (0 no damage, 100 complete death)
In short: as §1

[3] = tested on: sicklepod (Cassia obtusifolia, CAO); assay: Pre-emerge test, sicklepod; details: 250 g ai/ha, 14 days after application, rating scale 0-100 (0 no damage, 100 complete death)
In short: as §1

[4] = tested on: ivyleaf morningglory (Ipomoea hederacea, IPH); assay: Pre-emerge test, ivyleaf morningglory; details: 250 g ai/ha, 14 days after application, rating scale 0-100 (0 no damage, 100 complete death)
In short: as §1

[5] = tested on: lambsquarters (Chenopodium album, CHA); assay: Pre-emerge test, lambsquarters; details: 250 g ai/ha, 14 days after application, rating scale 0-100 (0 no damage, 100 complete death)
In short: as §1

[6] = tested on: common ragweed (Ambrosia artemisiifolia L., AML); assay: Pre-emerge test, common ragweed; details: 250 g ai/ha, 14 days after application, rating scale 0-100 (0 no damage, 100 complete death)
In short: as §1

[7] = tested on: cocklebur (Xanthium strumariunt, XAS); assay: Pre-emerge test, cocklebur; details: 250 g ai/ha, 14 days after application, rating scale 0-100 (0 no damage, 100 complete death)
In short: as §1

[8] = tested on: green foxtail (Setaria viridis, SEV); assay: Pre-emerge test, green foxtail; details: 250 g ai/ha, 14 days after application, rating scale 0-100 (0 no damage, 100 complete death)
In short: as §1

[9] = tested on: barnyardgrass (Echinachloa crus-galli, ECC); assay: Pre-emerge test, barnyardgrass; details: 250 g ai/ha, 14 days after application, rating scale 0-100 (0 no damage, 100 complete death)
In short: as §1

[10] = tested on: johnsongrass (Sorghum halepense, SOH); assay: Pre-emerge test, johnsongrass; details: 250 g ai/ha, 14 days after application, rating scale 0-100 (0 no damage, 100 complete death)
In short: as §1

[11] = tested on: large crabgrass (Digitaria sanguinalis, DIS); assay: Pre-emerge test, large crabgrass; details: 250 g ai/ha, 14 days after application, rating scale 0-100 (0 no damage, 100 complete death)
In short: as §1

[12] = tested on: field corn (Zea mays L., var. Dekalb 535, CORN); assay: Pre-emerge test, crop damage field corn
In short: (§2)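 Sandy loam soil mix, 10 cm pots, sowing 1 d before treatment; spray volume 187 l/ha, rates 8–1000 g ai/ha in acetone; 0–100 visual rating at 14 d.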

[13] = tested on: soybean (Glycine max L., var. Pella 86, SOY); assay: Pre-emerge test, crop damage soybean
In short: as §2

[14] = tested on: upland rice (Oryza sp., var.Tebonnet, RICE); assay: Pre-emerge test, crop damage upland rice
In short: as §2

[15] = tested on: wheat (Triticum aestivum); assay: Pre-emerge test, crop damage wheat
In short: as §2

[16] = tested on: redroot pigweed (Amaranthus retroflexus, AMR); assay: Post-emerge test, redroot pigweed; details: 250 g ai/ha, 14 days after application, rating scale 0-100 (0 no damage, 100 complete death)
In short: (§3)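 Rates: 8-1000 g ai/ha. Carrier: acetone, 187 l/ha, 0.25% v/v surfactant. Stage: 2-3 leaves, sown 8-21 d earlier. Read-out: 0-100 phytotoxicity at 14 d.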

[17] = tested on: velvetleaf (Abutilon theophrasti, ABT); assay: Post-emerge test, velvetleaf; details: 250 g ai/ha, 14 days after application, rating scale 0-100 (0 no damage, 100 complete death)
In short: as §3

[18] = tested on: sicklepod (Cassia obtusifolia, CAO); assay: Post-emerge test, sicklepod; details: 250 g ai/ha, 14 days after application, rating scale 0-100 (0 no damage, 100 complete death)
In short: as §3

[19] = tested on: ivyleaf morningglory (Ipomoea hederacea, IPH); assay: Post-emerge test, ivyleaf morningglory; details: 250 g ai/ha, 14 days after application, rating scale 0-100 (0 no damage, 100 complete death)
In short: as §3

[20] = tested on: lambsquarters (Chenopodium album, CHA); assay: Post-emerge test, lambsquarters; details: 250 g ai/ha, 14 days after application, rating scale 0-100 (0 no damage, 100 complete death)
In short: as §3

[21] = tested on: common ragweed (Ambrosia artemisiifolia L., AML); assay: Post-emerge test, common ragweed; details: 250 g ai/ha, 14 days after application, rating scale 0-100 (0 no damage, 100 complete death)
In short: as §3

[22] = tested on: cocklebur (Xanthium strumariunt, XAS); assay: Post-emerge test, cocklebur; details: 250 g ai/ha, 14 days after application, rating scale 0-100 (0 no damage, 100 complete death)
In short: as §3

[23] = tested on: green foxtail (Setaria viridis, SEV); assay: Post-emerge test, green foxtail; details: 250 g ai/ha, 14 days after application, rating scale 0-100 (0 no damage, 100 complete death)
In short: as §3

[24] = tested on: barnyardgrass (Echinachloa crus-galli, ECC); assay: Post-emerge test, barnyardgrass; details: 250 g ai/ha, 14 days after application, rating scale 0-100 (0 no damage, 100 complete death)
In short: as §3

[25] = tested on: johnsongrass (Sorghum halepense, SOH); assay: Post-emerge test, johnsongrass; details: 250 g ai/ha, 14 days after application, rating scale 0-100 (0 no damage, 100 complete death)
In short: as §3

[26] = tested on: large crabgrass (Digitaria sanguinalis, DIS); assay: Post-emerge test, large crabgrass; details: 250 g ai/ha, 14 days after application, rating scale 0-100 (0 no damage, 100 complete death)
In short: as §3

[27] = tested on: field corn (Zea mays L., var. Dekalb 535, CORN); assay: Post-emerge test, crop damage field corn
In short: as §3

[28] = tested on: soybean (Glycine max L., var. Pella 86, SOY); assay: Post-emerge test, crop damage soybean
In short: as §3

[29] = tested on: upland rice (Oryza sp., var.Tebonnet, RICE); assay: Post-emerge test, crop damage upland rice
In short: as §3

[30] = tested on: wheat (Triticum aestivum); assay: Post-emerge test, crop damage wheat
In short: as §3

[31] = pre-emerge, 250 g ai/ha, 14 days after application, rating scale 0-100 (0 no damage, 100 complete death)
[32] = post-emerge, 250 g ai/ha, 14 days after application, rating scale 0-100 (0 no damage, 100 complete death)
[33] = var. Dekalb 535, Zea mays (field corn), in vivo, 14 days
[34] = var. Pella 86, Glycine max (soybean), in vivo, 14 days
[35] = var. Tebonnet, Oryza sp. (upland rice), in vivo, 14 days
[36] = Triticum aestivum (wheat), in vivo, 14 days

SMILES	Pre-emerge Herbicidal Activity AMR (phytotoxicity rating) [1]	Pre-emerge Herbicidal Activity ABT (phytotoxicity rating) [2]	Pre-emerge Herbicidal Activity CAO (phytotoxicity rating) [3]	Pre-emerge Herbicidal Activity IPH (phytotoxicity rating) [4]	Pre-emerge Herbicidal Activity CHA (phytotoxicity rating) [5]	Pre-emerge Herbicidal Activity AML (phytotoxicity rating) [6]	Pre-emerge Herbicidal Activity XAS (phytotoxicity rating) [7]	Pre-emerge Herbicidal Activity SEV (phytotoxicity rating) [8]	Pre-emerge Herbicidal Activity ECC (phytotoxicity rating) [9]	Pre-emerge Herbicidal Activity SOH (phytotoxicity rating) [10]	Pre-emerge Herbicidal Activity DIS (phytotoxicity rating) [11]	Post-emerge Herbicidal Activity AMR (phytotoxicity rating) [16]	Post-emerge Herbicidal Activity ABT (phytotoxicity rating) [17]	Post-emerge Herbicidal Activity CAO (phytotoxicity rating) [18]	Post-emerge Herbicidal Activity IPH (phytotoxicity rating) [19]	Post-emerge Herbicidal Activity CHA (phytotoxicity rating) [20]	Post-emerge Herbicidal Activity AML (phytotoxicity rating) [21]	Post-emerge Herbicidal Activity XAS (phytotoxicity rating) [22]	Post-emerge Herbicidal Activity SEV (phytotoxicity rating) [23]	Post-emerge Herbicidal Activity ECC (phytotoxicity rating) [24]	other results
CC1C(=O)Nc2c(-c3nn(C)c(C(F)(F)F)c3Cl)c(F)cc3c2N1C(=O)C(C)(C)O3 (stereo not drawn) [1-54]	100	100	99	75	100	95	90	98	85	99	95	80	100	40	60	99	80	65	65	0	Pre-emerge crop damage CORN (phytotoxicity rating) [12, 31]: 55; Pre-emerge crop damage SOY (phytotoxicity rating) [13, 31]: 55; Pre-emerge crop damage RICE (phytotoxicity rating) [14, 31]: 0; Pre-emerge crop damage WHEAT (phytotoxicity rating) [15, 31]: 0; Post-emerge Herbicidal Activity SOH (phytotoxicity rating) [25]: 0; Post-emerge Herbicidal Activity DIS (phytotoxicity rating) [26]: 0; Post-emerge crop damage CORN (phytotoxicity rating) [27, 32]: 0; Post-emerge crop damage SOY (phytotoxicity rating) [28, 32]: 45; Post-emerge crop damage RICE (phytotoxicity rating) [29, 32]: 0; Post-emerge crop damage WHEAT (phytotoxicity rating) [30, 32]: 0
Cn1nc(-c2c(F)cc3c4c2NC(=O)C(Cl)N4C(=O)CO3)c(Cl)c1OC(F)F (stereo not drawn) [1-79]	100	75	60	60	100	99	65	15	35	50	80	70	75	0	60	65	80	0	65	25	Pre-emerge crop damage CORN (phytotoxicity rating) [12, 31]: 30; Pre-emerge crop damage SOY (phytotoxicity rating) [13, 31]: 40; Pre-emerge crop damage RICE (phytotoxicity rating) [14, 31]: 30; Pre-emerge crop damage WHEAT (phytotoxicity rating) [15, 31]: 30; Post-emerge Herbicidal Activity SOH (phytotoxicity rating) [25]: 0; Post-emerge Herbicidal Activity DIS (phytotoxicity rating) [26]: 0; Post-emerge crop damage CORN (phytotoxicity rating) [27, 32]: 0; Post-emerge crop damage SOY (phytotoxicity rating) [28, 32]: 0; Post-emerge crop damage RICE (phytotoxicity rating) [29, 32]: 0; Post-emerge crop damage WHEAT (phytotoxicity rating) [30, 32]: 0
CC1C(=O)N(C)c2c(-c3nn(C)c(OC(F)F)c3Cl)c(F)cc3c2N1C(=O)CO3 (stereo not drawn) [1-62]	65	90	50	60	100	35	25	100	90	90	50	99	80	35	75	100	90	65	60	30	Pre-emerge crop damage CORN (phytotoxicity rating) [12, 31]: 10; Pre-emerge crop damage SOY (phytotoxicity rating) [13, 31]: 10; Pre-emerge crop damage RICE (phytotoxicity rating) [14, 31]: 50; Pre-emerge crop damage WHEAT (phytotoxicity rating) [15, 31]: 45; Post-emerge Herbicidal Activity SOH (phytotoxicity rating) [25]: 0; Post-emerge Herbicidal Activity DIS (phytotoxicity rating) [26]: 30; Post-emerge crop damage CORN (phytotoxicity rating) [27, 32]: 0; Post-emerge crop damage SOY (phytotoxicity rating) [28, 32]: 0; Post-emerge crop damage RICE (phytotoxicity rating) [29, 32]: 70; Post-emerge crop damage WHEAT (phytotoxicity rating) [30, 32]: 50
Cn1nc(-c2c(F)cc3c4c2NC(=O)CN4C(=O)CO3)c(Cl)c1C(F)(F)F [1-13, 8-[4-Chloro-1-methyl-5-(trifluoromethyl)-1H-pyrazol-3-yl]-9-fluoro-5H-pyrazino[1,2,3-de]-1,4-benzoxazine-3,6(2H, 7H)-dione]	100	100	100	100	100	100	80	100	100	100	100	100	100	100	100	100	100	100	100	99	Pre-emerge crop damage CORN (phytotoxicity rating) [12, 33]: 90; Pre-emerge crop damage SOY (phytotoxicity rating) [13, 34]: 50; Pre-emerge crop damage RICE (phytotoxicity rating) [14, 35]: 90; Pre-emerge crop damage WHEAT (phytotoxicity rating) [15, 36]: 65; Post-emerge Herbicidal Activity SOH (phytotoxicity rating) [25]: 100; Post-emerge Herbicidal Activity DIS (phytotoxicity rating) [26]: 55; Post-emerge crop damage CORN (phytotoxicity rating) [27, 33]: 25; Post-emerge crop damage SOY (phytotoxicity rating) [28, 34]: 100; Post-emerge crop damage RICE (phytotoxicity rating) [29, 35]: 99; Post-emerge crop damage WHEAT (phytotoxicity rating) [30, 36]: 25
